Assay results reported in BindingDB's records for patent US11957687 (Regeneron Pharmaceuticals, 2024).
pIC50: −log10 of the molar value.

Target: T1, 17-beta-hydroxysteroid dehydrogenase 13 (Homo sapiens, UniProt Q7Z5P4)
T1 sequence (Q7Z5P4 whole entry): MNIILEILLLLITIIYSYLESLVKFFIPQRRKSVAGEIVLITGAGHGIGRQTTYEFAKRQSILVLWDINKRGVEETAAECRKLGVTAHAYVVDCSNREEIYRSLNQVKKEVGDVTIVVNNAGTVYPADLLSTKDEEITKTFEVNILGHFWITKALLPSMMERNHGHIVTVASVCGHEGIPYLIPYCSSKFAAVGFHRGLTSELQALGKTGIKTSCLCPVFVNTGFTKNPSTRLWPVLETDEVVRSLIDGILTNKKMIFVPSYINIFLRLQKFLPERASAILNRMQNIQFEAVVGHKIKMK
Assay: HSD17B13 Enzymatic Blocking Assay (50nM)
Procedure: Compounds of the disclosure were screened for their ability to block HSD17B13 function using an enzymatic blocking assay. HSD17B13 activity was quantified using a NADH Glo luminescence assay (Promega, #Cat. No. G9062) to measure the formation of NADH from the oxidation of LTB4, a known HSD17B13 substrate. Compounds were over a 10-point dose curve using an Echo-555 liquid handling dispenser. HSD17B13 (SEQ ID NO: 1, expressed in E. coli) was added at […] a final concentration of 50 nM, depending on the assay run, in a buffer containing 0.2M Tris-HCl pH 7.5 containing 0.01% Triton-X into a low volume white 384-well assay plate. Compounds were incubated with the enzyme for 30 minutes at room temperature. The assay reaction was then initiated by addition of 10 μM LTB4 substrate (Cayman chemicals, Cat. No. 20110) and 500 μM NAD, and the reaction mixture was incubated for 1 or 2 hours at room temperature depending on the assay run. DMSO at a concentration of 0.5% was used as a negative control, and a ‘no substrate’ control was used as a positive control (100% inhibition) in the assay. […] Generation of NADH was detected in the luminescence mode on the Envision Perkin Elmer plate reader. The IC50 values were determined using Dotmatics analysis software.

Row | SMILES | pIC50
1 | CCCC1Cc2ccc(C)cc2C1NC(=O)c1ccc(C(F)(F)F)[nH]c1=O (configuration not stated) [US11957687, Compound 291] | 7.10
2 | CC(C)(C)OC(=O)NCCc1cccc2c1CCCC2NC(=O)c1ccc(C(F)(F)F)[nH]c1=O (configuration not stated) [US11957687, Compound 301] | 5.46
